From patent publication US11572337B2, “Antibacterial agents: arylalkylcarboxamido phloroglucinols” (Rutgers, The State University of New Jersey, priority 2018, dated 2023)
≈ marks a conversion by molar mass, not a printed value.

Columns and labels:
[1] = molecular target: E. coli RNA polymerase σ70 holoenzyme (Escherichia coli (strain K12), UniProt P0A8T7+P0A8V2); assay: Fluorescence-detected assay of inhibition of Escherichia coli RNA polymerase; type: biochemical; settings: T4 N25 promoter DNA, RiboGreen fluorescence, read-out: RNAP-inhibitory activity E. coli RNAP IC50
Experimental: (§1) Fluorescence-detected RNA polymerase assays with E. coli RNA polymerase were performed by a modification of the procedure of Kuhlman et al., 2004 [Kuhlman, P., Duff, H. & Galant, A. (2004) A fluorescence-based assay for multisubunit DNA-dependent RNA polymerases. Anal. Biochem. 324, 183-190]. Reaction mixtures contained […]: […] test salt, 75 nM E. coli RNA polymerase σ^70 holoenzyme, 20 nM 384 bp DNA fragment containing the bacteriophage T4 N25 promoter, 100 μM ATP, 100 μM GTP, 100 μM UTP, 100 μM CTP, 50 mM Tris-HCl, pH 8.0, 100 mM KCl, 10 mM MgCl2, 1 mM DTT, 10 μg/ml bovine serum albumin, and 5.5% glycerol. Reaction components other than DNA and NTPs were pre-incubated for 10 min at 37° C. Reactions were carried out by addition of DNA and incubation for 5 min at 37° C., followed by addition of NTPs and incubation for 60 min at 37° C. DNA was removed by addition of 1 μl 5 mM CaCl2 and 2 U DNaseI (Ambion, Inc.), followed by incubation for 90 min at 37° C. RNA was quantified by addition of 100 μI RiboGreen RNA Quantitation Reagent (Invitrogen, Inc.; 1:500 dilution in Tris-HCl, pH 8.0, 1 mM EDTA), followed by incubation for 10 min at 25° C., followed by measurement of fluorescence intensity [excitation wavelength=485 nm and emission wavelength=535 nm; QuantaMaster QM1 spectrofluorometer (PTI, Inc.)]. IC50 is defined as the concentration of inhibitor resulting in 50% inhibition of RNA polymerase activity.

[2] = molecular target: S. aureus RNA polymerase core enzyme + S. aureus σA (Staphylococcus aureus (strain NCTC 8325 / PS 47), UniProt P47768+Q2G0N5); assay: Fluorescence-detected assay of inhibition of Staphylococcus aureus RNA polymerase; type: biochemical; settings: T4 N25 promoter DNA, RiboGreen fluorescence, read-out: RNAP-inhibitory activity S. aureus RNAP IC50
Experimental: as §1
Fluorescence-detected RNA polymerase assays with S. aureus RNA polymerase were performed as in Example 2.1, using reaction mixtures containing (20 μl): 0-100 nM test salt, 75 nM S. aureus RNA polymerase core enzyme, 300 nM S. aureus σ^A, 20 nM 384 bp DNA fragment containing the bacteriophage T4 N25 promoter, 100 μM ATP, 100 μM GTP, 100 μM UTP, 100 μM CTP, 40 mM Tris-HCl, pH 8.0, 80 mM NaCl, 5 mM MgCl2, 2.5 mM DTT, and 12.7% glycerol. IC50 is defined as the concentration of inhibitor resulting in 50% inhibition of RNA polymerase activity.

[3] = test system: Staphylococcus aureus ATCC 12600; assay: Inhibition of growth of Staphylococcus aureus (spiral gradient endpoint MIC assay); type: cell-based; settings: ATCC12600, Mueller-Hinton II cation-adjusted agar, 16 h at 37° C., read-out: in vitro antibacterial activity S. aureus ATCC12600 MIC
Text: Minimum inhibitory concentrations (MICs for Staphylococcus aureus ATCC 12600 were quantified using spiral gradient endpoint assays, essentially as described [Wallace, A. and Corkill, J. (1989) Application of the spiral plating method to study antimicrobial action. J. Microbiol. Meths. 10, 303-310; Paton, J., Holt, A., and Bywater, M. (1990) Measurement of MICs of antibacterial agents by spiral gradient endpoint compared with conventional dilution methods. Int. I Exp. Clin. Chemother. 3, 31-38; Schalkowsky S. (1994) Measures of susceptibility from a spiral gradient of drug concentrations. Adv. Exp. Med. Biol. 349, 107-120]. Assays employed exponential-gradient plates containing 150 mm×4 mm Mueller-Hinton II cation-adjusted agar and 0.4-100 μg/ml of test salt. Plates were prepared using an Autoplate 4000 spiral plater (Spiral Biotech, Inc.). Saturated overnight cultures were swabbed radially onto plates, and plates were incubated for 16 h at 37° C. For each culture, the streak length was measured using a clear plastic template (Spiral Biotech, Inc.), the test-salt concentration at the streak endpoint was calculated using the program SGE (Spiral Biotech, Inc.), and the MIC was defined as the calculated test-salt concentration at the streak endpoint.

[4] = test system: methicillin-resistant Staphylococcus aureus (MRSA) strain BAA-1707 (USA-400, MW2); assay: Antibacterial efficacy in mouse model of Staphylococcus aureus systemic infection (peritonitis model); settings: female Swiss Webster mice, intravenous injection 0 h post-infection, dose resulting in 50% survival at 72 h (probit), read-out: in vivo antibacterial activity mouse MRSA peritonitis ED50
Experimental: Female Swiss Webster mice ([…]) were experimentally infected by intraperitoneal administration of 1×10^7 colony forming units of methicillin-resistant Staphylococcus aureus (MRSA) strain BAA-1707 (USA-400, MW2) in 5% hog gastric mucin. Test compounds in vehicle (5% dimethylacetamide and 4% cremophor EL in 10 mM sodium phosphate, pH 8), positive control (linezolid in vehicle), and negative control (vehicle only), were administered by intravenous injection into a tail vein (200 μl) 0 h post-infection. Identities of test compounds and controls were blinded from personnel performing injections and monitoring survival. The protective dose 50 (PD50) was defined as the test-compound dose resulting in 50% survival at 72 h (calculated using the probit method).

Row | Compound | IC50 [1] [µM] | IC50 [2] [µM] | MIC [3] [µg/mL] | ED50 [4] [mg/kg]
1 | O=C(NCCc1ccc(Oc2ccccc2)cc1)c1c(O)cc(O)cc1O [Compound 0MTK148, 2,4,6-trihydroxy-N-(4-phenoxyphenethyl)benzamide] | 0.8 | 3.9 | 19 (≈ 52 µM) | 2.5
2 | O=C(NCCc1ccc(Oc2cc(Cl)cc(Cl)c2)cc1)c1c(O)c(Cl)c(O)c(Cl)c1O [Compound 0MTK238, 3,5-dichloro-N-(4-(3,5-dichlorophenoxy)phenethyl)-2,4,6-trihydroxybenzamide] | 0.77 | 3 | 3.2 (≈ 6.36 µM) | –
3 | O=C(NCc1ccc(Oc2ccccc2)cc1)c1c(O)cc(O)cc1O [Compound 0MTK149, 2,4,6-trihydroxy-N-(4-phenoxybenzyl)benzamide] | 0.14 | 1.5 | 19 (≈ 54.1 µM) | –
4 | O=C(NCCc1ccc(Oc2ccc(F)cc2)cc1)c1c(O)cc(O)cc1O [Compound 0MTK156, N-(4-(4-fluorophenoxy)phenethyl)-2,4,6-trihydroxybenzamide] | 0.82 | 5.5 | 8.3 (≈ 21.6 µM) | –
5 | O=C(NCCc1ccc(Cl)cc1)c1c(O)cc(O)cc1O [Compound 0MTK127, N-(4-chlorophenethyl)-2,4,6-trihydroxybenzamide] | 0.37 | 1.5 | 20 (≈ 65 µM) | –
6 | O=C(NCCc1ccc(Oc2ccc(Cl)cc2)cc1)c1c(O)cc(O)c(Cl)c1O [Compound 0MTK232, 3-chloro-N-(4-(4-chlorophenoxy)phenethyl)-2,4,6-trihydroxybenzamide] | 0.72 | 8 | 20 (≈ 46.1 µM) | –
7 | O=C(NCc1ccc(Oc2ccc(F)cc2)cc1C(F)(F)F)c1c(O)cc(O)cc1O [Compound 0MTK155, N-(4-(4-fluorophenoxy)-2-(trifluoromethyl)benzyl)-2,4,6-trihydroxybenzamide] | 0.79 | 8.1 | 8.1 (≈ 18.5 µM) | –
8 | CCC1=C(O)C(CC)(CC)C(=O)C(C(=O)NCCc2ccc(Oc3ccc(F)cc3)cc2)=C1O [Compound 3RKHTK161, 3,5,5-triethyl-N-(4-(4-fluorophenoxy)phenethyl)-2,4-dihydroxy-6-oxocyclohexa-1,3-dienecarboxamide] | 3.3 | 13 | 2.8 (≈ 5.99 µM) | –
9 | O=C(NCCc1ccc(C(F)(F)F)cc1C(F)(F)F)c1c(O)cc(O)cc1O [Compound 0MTK208, N-(2,4-bis(trifluoromethyl)phenethyl)-2,4,6-trihydroxybenzamide] | 7.2 | 5 | 11 (≈ 26.9 µM) | –
10 | O=C(NCCc1ccc(Oc2ccccc2)cc1)c1c(O)c(Cl)c(O)c(Cl)c1O [Compound 0MTK230, 3,5-dichloro-2,4,6-trihydroxy-N-(4-phenoxyphenethyl)benzamide] | 7.7 | 35 | > 40 | –
11 | O=C(NCCc1ccc(Oc2ccc(Cl)cc2)cc1)c1c(O)cc(O)cc1O [Compound 0MTK183, N-(4-(4-chlorophenoxy)phenethyl)-2,4,6-trihydroxybenzamide] | 1.7 | 14 | 6.1 (≈ 15.3 µM) | –
12 | O=C(NCc1ccc(Oc2ccc(F)cc2)c(F)c1)c1c(O)cc(O)cc1O [Compound 0MTK175, N-(3-fluoro-4-(4-fluorophenoxy)benzyl)-2,4,6-trihydroxybenzamide] | 0.45 | 7 | 8.6 (≈ 22.2 µM) | –
13 | O=C(NCCc1ccc(C(F)(F)F)cc1)c1c(O)cc(O)c(Cl)c1O [Compound 0MTK223, 3-chloro-2,4,6-trihydroxy-N-(4-(trifluoromethyl)phenethyl)benzamide] | 6.6 | 10 | > 40 | –
14 | O=C(NCCc1ccc(Oc2ccc(Cl)cc2)cc1)c1c(O)c(Cl)c(O)c(Cl)c1O [Compound 0MTK233, 3,5-dichloro-N-(4-(4-chlorophenoxy)phenethyl)-2,4,6-trihydroxybenzamide] | 4.5 | 23 | 6.8 (≈ 14.5 µM) | –
15 | O=C(NCc1ccc(Oc2ccccc2)cc1C(F)(F)F)c1c(O)cc(O)cc1O [Compound 0MTK158, 2,4,6-trihydroxy-N-(4-phenoxy-2-(trifluoromethyl)benzyl)benzamide] | 0.22 | 1.8 | 5.4 (≈ 12.9 µM) | –
16 | O=C(NCc1ccc(Oc2ccc(F)cc2)cc1Cl)c1c(O)cc(O)cc1O [Compound 0MTK181, N-(2-chloro-4-(4-fluorophenoxy)benzyl)-2,4,6-trihydroxybenzamide] | 1.4 | > 60 | 6.9 (≈ 17.1 µM) | –
